Experimental data reported in patent US12570641B2, “Solid forms of a CDK4 inhibitor” (Pfizer Inc., priority 2020, dated 2026).

How the values were obtained:
Format in all cases: physicochemical
[1] = Accelerated solid state chemical/humidity stability by UPLC; details: for % impurity RRT 0.89 / % impurity RRT 1.31: UPLC
Procedure: Accelerated solid state chemical stability and photostability of PF-07220060 monohydrate (Form 2) was investigated. Solid state chemical/humidity stability of PF-07220060 monohydrate (Form 2) was evaluated by UPLC (ultra performance liquid chromatography) analysis after storage at 70° C./5% RH and 70° C./75% RH for one week, and at 40° C./5% RH and 40° C./75% RH for 6 weeks. The percentage of identified impurity peaks at the indicated RRT (relative retention time) values were determined under the challenge conditions versus a control sample stored at ambient temperature. RRT is calculated by dividing the retention time (RT) of the impurity by the RT of Form 2. Data at 70° C./5% RH and 70° C./75% RH for one week are provided in Table 14 and Table 15, respectively.

[2] = Solid form of control and stressed samples by powder X-ray diffraction
Procedure: Powder X-ray diffraction analysis was conducted using a Bruker AXS D8 Endeavor diffractometer equipped with a copper radiation source. The divergence slit was set at 15 mm continuous illumination. Diffracted radiation was detected by a PSD-Lynx Eye detector, with the detector PSD opening set at 2.99 degrees. The X-ray tube voltage and amperage were set to 40 kV and 40 mA respectively. Data was collected at the copper (Cu) wavelength (CuKα=[…]) in the Theta-Theta goniometer from 3.0 to 40.0 degrees 2-Theta. A step size of 0.01 degrees and a step time of 1.0 second was used for Form 2, Form 6 and Form 8. A step size of 0.02 degrees and a step time of 0.3 seconds was used for Form 11. The antiscatter screen was set to a fixed distance of 1.5 mm. Samples were rotated during data collection. Samples were prepared by placing them in a silicon low background sample holder and rotated during collection. Data were collected using Bruker DIFFRAC Plus software and analysis was performed by EVA diffract plus software.
Powder X-ray diffraction was used to assess the solid form of the control and the stressed samples.

[3] = Solid-state photostability (2x ICH light exposure)
Procedure: Solid-state photostability of PF-07220060 monohydrate (Form 2) was evaluated after light exposure equivalent to 2× International Conference on Harmonisation (ICH) guidelines.

[4] = Moisture sorption (hygroscopicity), water sorption and desorption
Procedure: Water sorption and desorption studies were conducted on an automated vapor sorption analyzer (TA instruments Q5000 SA). The microbalance was calibrated using a 100 mg standard weight. The relative humidity (RH) sensor was calibrated at 5.0, 11.3, 32.8, 52.8, 75.3, and 84.3% RH (25° C.) using saturated salt solutions. Approximately 10-20 mg of the powder sample was placed in the quartz sample holder and dried at 3% RH at 60° C. The attainment of equilibrium was assumed when the weight change of the sample was <0.001 wt % in 5 min or by a maximum equilibration time of 300 minutes. […] Again, the attainment of equilibrium was assumed when the weight change of the sample was <0.001 wt % in 5 min or by a maximum equilibration time of 300 minutes. The weight gain at 60% RH is based on the weight after the initial drying step.
Water sorption and desorption studies of PF-07220060 monohydrate (Form 2), prepared as described in Example 2, were conducted according to General Method 6.
Water sorption and desorption studies of PF-07220060 hydrate (Form 1), prepared as described in Example 5B, were conducted according to General Method 6.
Comparative hygroscopicity experiments were performed using moisture sorption analysis according to General Method 6. PF-07220060 Forms 1, 2, 6, and 8 were evaluated using moisture sorption at 25° C., 60% RH. A form change at the completion of the run was not detected for any of the forms by PXRD.

[5] = Thermal stability by Differential Scanning Calorimetry (DSC)
Procedure: Modulated Differential scanning calorimetry (DSC) measurements were performed with Discovery DSC (TA instruments) equipped with a refrigerated cooling accessory. All the experiments were performed in standard/Tzero aluminum pans. The cell constant was determined using indium and temperature calibration was performed using indium and tin as standards. All the measurements were done under continuous dry nitrogen purge (50 mL/min). Approximately 1-5 mg of solid sample was weighed into a Tzero aluminum pan, sealed non-hermetically and heated from −40° C. to 220° C. at 10° C./min heating rate. The experimental data were analyzed using commercially available software (TA Universal Analysis 2000/Trios software, TA Instruments).
(§1) Thermal stability data were obtained through thermogravimetric analysis (TGA) according to General Method 4, and Differential Scanning Calorimetry (DSC) scan according to General Method 5A.

[6] = Thermal stability by thermogravimetric analysis (TGA); details: listed as Form 2 (monohydrate), monohydrate
Procedure: Thermogravimetric analysis was conducted using a Discovery TGA (TA instruments) thermogravimetric analyzer. Samples of approximately 10 mg were weighed into aluminum pans and heated from ambient ([…]) to 250° C. at 10° C./minute heating rate under nitrogen purge (10 mL/min for both sample chamber and balance).
as §1

[7] = control sample stored at ambient temperature
[8] = stressed samples: 70° C./75% RH and 70° C./5% RH for one week, 40° C./75% RH and 40° C./5% RH for 6 weeks
[9] = UV/Fluor, 2x ICH light exposure

% impurity RRT 0.89 ([1]; 70° C./5% RH (one week)): 0.57% | % impurity RRT 1.31 ([1]; 70° C./5% RH (one week)): 0.99% | % impurity RRT 0.89 ([1]; 70° C./75% RH (one week)): 0.58% | % impurity RRT 1.31 ([1]; 70° C./75% RH (one week)): 1.00% | % impurity RRT 0.89 [1, 7]: 0.57% | % impurity RRT 1.31 [1, 7]: 1.00% | change in appearance compared to the control sample [1, 8]: No significant change in appearance | growth of individual impurities [1, 8]: ≤ 0.2% | total impurities [1, 8]: ≤ 2.0% | solid form change by PXRD ([2]; 40° C./5% RH for six weeks): disorder | solid form change by PXRD ([2]; 40° C./75% RH for six weeks): No form change was detected | solid form change by PXRD ([2]; 70° C./5% RH for one week): Slight disorder | solid form change by PXRD ([2]; 70° C./75% RH for one week): No form change was detected | solid form change by PXRD ([3]; 2×CH condition): no form change | change in appearance compared to the dark control sample ([3]; 2×CH photostability sample): No significant change in appearance | growth of individual impurities ([3]; 2×CH photostability samples): ≤ 0.2% | total impurities ([3]; 2×CH photostability samples): ≤ 2.0% | % impurity RRT 0.74 ([3]; Dark control (wrapped in foil)): NMT = 0.05% | % impurity RRT 0.87 ([3]; Dark control (wrapped in foil)): 0.06% | % impurity RRT 1.02 ([3]; Dark control (wrapped in foil)): NMT = 0.05% | % impurity RRT 1.33 ([3]; Dark control (wrapped in foil)): 0.08% | % impurity RRT 0.74 [3, 9]: 0.11% | % impurity RRT 0.87 [3, 9]: 0.06% | % impurity RRT 1.02 [3, 9]: 0.07% | % impurity RRT 1.33 [3, 9]: 0.07% | form change at the completion of the moisture sorption run by PXRD ([4]; 25° C., 60% RH): not detected | Weight gain (%) ([4]; 25 °C, RH 0%, listed as PF-07220060 monohydrate (Form 2), monohydrate): 0.00% | Weight gain (%) ([4]; 25 °C, RH 10%, desorption, listed as PF-07220060 monohydrate (Form 2), monohydrate): 0.54% | Weight gain (%) ([4]; 25 °C, RH 10%, sorption, listed as PF-07220060 monohydrate (Form 2), monohydrate): 0.45% | Weight gain (%) ([4]; 25 °C, RH 20%, desorption, listed as PF-07220060 monohydrate (Form 2), monohydrate): 0.55% | Weight gain (%) ([4]; 25 °C, RH 20%, sorption, listed as PF-07220060 monohydrate (Form 2), monohydrate): 0.49% | Weight gain (%) ([4]; 25 °C, RH 30%, desorption, listed as PF-07220060 monohydrate (Form 2), monohydrate): 0.56% | Weight gain (%) ([4]; 25 °C, RH 30%, sorption, listed as PF-07220060 monohydrate (Form 2), monohydrate): 0.51% | Weight gain (%) ([4]; 25 °C, RH 40%, desorption, listed as PF-07220060 monohydrate (Form 2), monohydrate): 0.57% | Weight gain (%) ([4]; 25 °C, RH 40%, sorption, listed as PF-07220060 monohydrate (Form 2), monohydrate): 0.52% | Weight gain (%) ([4]; 25 °C, RH 50%, desorption, listed as PF-07220060 monohydrate (Form 2), monohydrate): 0.58% | Weight gain (%) ([4]; 25 °C, RH 50%, sorption, listed as PF-07220060 monohydrate (Form 2), monohydrate): 0.54% | Weight gain (%) ([4]; 25 °C, RH 60%, desorption, listed as PF-07220060 monohydrate (Form 2), monohydrate): 0.60% | Weight gain (%) ([4]; 25 °C, RH 60%, sorption, listed as PF-07220060 monohydrate (Form 2), monohydrate): 0.56% | Weight gain (%) ([4]; 25 °C, RH 70%, desorption, listed as PF-07220060 monohydrate (Form 2), monohydrate): 0.60% | Weight gain (%) ([4]; 25 °C, RH 70%, sorption, listed as PF-07220060 monohydrate (Form 2), monohydrate): 0.57% | Weight gain (%) ([4]; 25 °C, RH 80%, desorption, listed as PF-07220060 monohydrate (Form 2), monohydrate): 0.61% | Weight gain (%) ([4]; 25 °C, RH 80%, sorption, listed as PF-07220060 monohydrate (Form 2), monohydrate): 0.59% | Weight gain (%) ([4]; 25 °C, RH 90%, listed as PF-07220060 monohydrate (Form 2), monohydrate): 0.62% | Weight gain (%) ([4]; 60 °C, RH 0% (initial drying step)): 0.00% | Weight Gain (%) at 25° C., 60% RH ([4]; comparative summary of Forms 1, 2, 6 and 8, monohydrate): <1% | hygroscopicity relative to Form 8 and Form 1 ([4]; moisture sorption at 25° C., 60% RH): reduced hygroscopicity | thermal stability relative to Form 1 and Form 8 ([5]; TGA and DSC): improved thermal stability | Thermal stability via DSC (° C.) ([5]; listed as Form 2 (monohydrate), monohydrate): 50 °C | Thermal stability via TGA (° C.) [6]: 60 °C
Structure (SMILES): CC(C)n1c(C(C)(C)O)nc2c(F)cc(-c3nc(N[C@@H]4CCOC[C@H]4O)ncc3Cl)cc21 [Form 2, 1,5-anhydro-3-({5-chloro-4-[4-fluoro-2-(2-hydroxypropan-2-yl)-1-(propan-2-yl)-1H-benzimidazol-6-yl]pyrimidin-2-yl}amino)-2,3-dideoxy-D-threo-pentitol monohydrate]
